Here are results for four compounds from PMC12209699, “Waxy‐ or Putty‐Like Materials as a Novel Drug Preparation for Synthetic Cannabinoid Receptor Agonists: Detection in Prisons and In Vitro Cannabinoid Receptor Activity” (Drug Testing and Analysis, 2024).

Where two headings read alike, the source gives them in different places.

The target in one assay is CB1 receptor (Homo sapiens, UniProt P21554). Description: NanoBiT βarr2 recruitment bioassay at CB1 (HEK 293T cells stably expressing CB1‐βarr2). Conditions: for E max at CB1: normalized to E max of CP55,940 (set at 100%).
CB1 receptor, sequence (P21554 whole entry): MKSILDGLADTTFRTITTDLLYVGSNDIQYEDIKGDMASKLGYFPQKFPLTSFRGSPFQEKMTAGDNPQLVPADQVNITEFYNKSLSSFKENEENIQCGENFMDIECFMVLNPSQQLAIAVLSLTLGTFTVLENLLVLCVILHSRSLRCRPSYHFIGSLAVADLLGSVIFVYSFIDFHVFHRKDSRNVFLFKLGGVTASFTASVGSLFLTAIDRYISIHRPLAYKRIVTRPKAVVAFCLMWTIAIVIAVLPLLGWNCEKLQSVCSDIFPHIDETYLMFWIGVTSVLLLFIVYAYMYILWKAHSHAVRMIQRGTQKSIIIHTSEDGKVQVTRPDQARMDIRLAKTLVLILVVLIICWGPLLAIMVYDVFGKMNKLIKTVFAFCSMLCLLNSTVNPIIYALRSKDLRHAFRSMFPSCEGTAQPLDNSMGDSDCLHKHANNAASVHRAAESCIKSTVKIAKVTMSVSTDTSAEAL
CB1 receptor, sequence (P32121 whole entry partner): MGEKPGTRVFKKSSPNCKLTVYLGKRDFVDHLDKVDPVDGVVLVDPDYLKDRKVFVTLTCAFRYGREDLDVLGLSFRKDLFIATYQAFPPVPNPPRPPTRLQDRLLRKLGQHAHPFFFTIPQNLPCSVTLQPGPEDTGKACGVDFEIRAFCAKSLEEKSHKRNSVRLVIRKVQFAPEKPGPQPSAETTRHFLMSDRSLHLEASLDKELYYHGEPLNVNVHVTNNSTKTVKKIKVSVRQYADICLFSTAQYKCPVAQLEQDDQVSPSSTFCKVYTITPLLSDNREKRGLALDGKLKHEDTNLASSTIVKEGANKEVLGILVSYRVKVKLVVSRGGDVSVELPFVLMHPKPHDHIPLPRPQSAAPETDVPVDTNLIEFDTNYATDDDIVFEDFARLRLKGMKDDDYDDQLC
A further assay deals with CB2 receptor (Homo sapiens, UniProt P34972). Description: NanoBiT βarr2 recruitment bioassay at CB2 (HEK 293T cells stably expressing CB2‐βarr2). Conditions: for E max at CB2: normalized to E max of CP55,940 (set at 100%).
CB2 receptor, sequence (P34972 whole entry): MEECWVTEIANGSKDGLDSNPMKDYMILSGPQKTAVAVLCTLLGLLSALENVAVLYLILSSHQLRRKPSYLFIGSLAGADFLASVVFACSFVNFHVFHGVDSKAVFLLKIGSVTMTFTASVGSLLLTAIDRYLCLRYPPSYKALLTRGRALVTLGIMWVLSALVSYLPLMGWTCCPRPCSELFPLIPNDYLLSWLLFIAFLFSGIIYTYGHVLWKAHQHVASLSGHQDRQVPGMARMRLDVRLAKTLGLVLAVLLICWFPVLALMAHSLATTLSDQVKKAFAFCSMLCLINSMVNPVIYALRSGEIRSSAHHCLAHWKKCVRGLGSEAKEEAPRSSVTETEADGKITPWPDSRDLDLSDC
CB2 receptor, sequence (P32121 whole entry partner): as the sequence (P32121 whole entry partner) above
Another assay has as its system CB1. Conditions: ref [4], [60], cited from earlier work; for EC50: earlier in vitro data, read-out: EC 50 at CB1; for E max at CB1: normalized to CP55,940.

Turning to `CCCCCn1cc(C(=O)c2cccc3ccccc23)c2ccccc21` [JWH‐018], on CB1 receptor (interval in brackets), the “E max at CB1” value is 342 (300–385) %. Further, the EC50 on CB1 receptor (read-out: EC 50 at CB1, βarr2 recruitment, three‐parameter logistic fit, interval in brackets) is 18.8 nM; on CB2 receptor (read-out: EC 50 at CB2, βarr2 recruitment, three‐parameter logistic fit, interval in brackets), 5.9 nM. Moreover, at CB2 receptor (interval in brackets), the “E max at CB2” value is given as 71.9 (66–77.9) %.

Turning to `CCCCn1nc(C(=O)N[C@H](C(N)=O)C(C)(C)C)c2ccccc21` [ADB‐BUTINACA], in the assay with CB1, the EC50 was 19 nM and the “E max at CB1” value is given as 728%.

On to `COC(=O)[C@@H](NC(=O)c1n[nH]c2ccccc12)C(C)(C)C` [MDMB‐INACA], for which the values for the EC50 at CB1 receptor and at CB2 receptor were 6810 nM and 55.2 nM, respectively. Further, the “E max at CB1” value at CB1 receptor (interval in brackets) was 268 (233–305) %. In addition, the “E max at CB2” value at CB2 receptor (interval in brackets) is reported as 150 (134–167) %.

Turning to `C=CCCCn1nc(C(=O)N[C@H](C(=O)OC)C(C)(C)C)c2ccccc21` [MDMB‐4en‐PINACA], in the assay with CB1, the EC50 was 1.88 nM and the “E max at CB1” value is listed as 679%.
